The values that follow are results of earlier work, collected in publication PMC4942611, “Promising Tools in Prostate Cancer Research: Selective Non-Steroidal Cytochrome P450 17A1 Inhibitors” (Scientific Reports, 2016).

SMILES strings stand for the structures. Like-named read-outs stand apart in the source and are kept apart here.

The test system of this data set is CYP17A1. Also on record: method as in PMID 24775307. Particulars: cited from earlier work.

Take `CC(C)[C@](O)(c1ccc2cc(OC(F)F)c(OC(F)F)cc2c1)c1c[nH]nn1` [VT-464]: the IC50 (commonly the concentration needed to halve the response being measured) is 0.67 µM (read-out: IC50 hydroxylase step) and 0.069 µM (read-out: IC50 lyase step).
